Like-named read-outs stand apart in the source and are kept apart here. Values belong to the compound of their own block, whether it stands above or below them.
Assays:
[1] = test system: HCT cells; experiment: Formate rescue assay in cell growth; type: cell-based, human; conditions: Table 2
Description: Application of formate is shown to rescue the anti-growth effect in certain human cells treated with SHMT inhibitors in a cell growth assay.
(§1) The described cell lines for Examples 8 and 9 are cultured in 96-well plates in Dulbecco's modified eagle media (DMEM) without pyruvate (CELLGRO) with 10% dialysed fetal bovine serum (Invitrogen) in 5% CO2 at 37° C. Approximately 2,500 cells are plated in each well in 90 uL of media. After 24 hours cells are treated with various concentrations of inhibitor (time=0 hours), with or without formate. Growth was assessed at multiple time points (time=0, 24, 48, 72 hours) through measurement of fluorescence at 595 nm (excitation at 535 nm) on a BioTek micro titer plate reader after incubation with resazurin (0.01 mg/mL for 1.5 hours). IC50 curves are generated from percent inhibition of growth at 72 hours.

[2] = LogP value; type: physicochemical; conditions: Table 2; head prints (μM)
[3] = test system: human colon carcinoma HCT-116 WT cells; experiment: Cell growth assay (resazurin), HCT-116 wild-type; type: cell-based; conditions: for IC50: Homo sapiens, HCT-116, Table 2
Description: as §1, with “hours. […]” for “hours.”

[4] = Liver microsome assay (metabolic stability); type: in vitro ADME; conditions: male, CD-1, mouse, pooled liver microsomes
Description: The following master solution was prepared before compound addition:
Two separate experiments were performed as follows: a) With Cofactors (NADPH and UDPGA): 40 μL of 10 mM NADPH and 40 μL of 20 mM UDPGA were added to the incubations. The final concentrations of microsomes, NADPH and UDPGA were 0.5 mg/mL, 1 mM and 2 mM, respectively. b) Without Cofactors (NADPH and UDPGA): 10 μL of 20 mg/mL liver microsomes and 80 μL of ultra-pure water were added to the incubations. The final concentration of microsomes was 0.5 mg/mL. The mixture was pre-warmed at 37° C. for 5 minutes.
The reaction was started with the addition of 4 μL of 200 μM control compound or test compound solution. Verapamil was used as positive control in this study. The final concentration of test compound or control compound was 2 μM. The incubation solution was incubated in water bath at 37° C. Aliquots of 50 μL were taken from the reaction solution at 0.5, 5, 15, 30, 45 and 60 minutes. The reaction was stopped by the addition of 5 volumes of cold acetonitrile with IS (100 nM alprazolam, 200 nM caffeine and 100 nM tolbutamide). Samples were centrifuged at 3,220 g for 40 minutes. Aliquot of 100 μL of the supernatant was mixed with 100 μL of ultra-pure H2O and then used for LC-MS/MS analysis. The in vitro half-life (in vitro t1/2) was determined from the slope value of the LC-MS signal of the test compound.

[5] = test system: Jurkat cells; experiment: Cellular growth assay, Jurkat; type: cell-based
Description: (§2) Jurkat, REH, Farage, Daudi, Su-DHL2, Su-DHL-4, Su-DHL-6 cells were purchased from ATCC. Cells were subcultured in RPMI supplemented with 10% FBS. For growth assays, cells were seeded at 2×10^5/mL in 5 mL growth media in 12.5 cm flasks. Media was supplemented with sodium formate (1 mM), additional glycine (100 mg/L) and an SHMTi (5 uM). Cells were sampled daily, and counted using trypan blue staining and light microscopy.

[6] = test system: human pancreatic cell line 8988T; experiment: Growth of pancreatic cancer cell line 8988T; type: cell-based; conditions: 8988T cells
[7] = test system: Su-DHL4 cells; experiment: Cellular growth, SU-DHL4; type: cell-based; conditions: SU-DHL4, FIG. 12C legend
Description: as §2

[8] = test system: Su-DHL4 cells; experiment: Apoptosis by Annexin V surface staining, flow cytometry; type: cell-based
From the text: In contrast, cell growth is further decreased in Su-DHL4 cells by addition of formate. This can be further exacerbated by removal of glycine from the media. […] Using flow cytometry, apoptosis of Su-DHL4 cells were studied with AnnexinV surface staining (FIGS. 12D and 12E).

[9] = target: human SHMT2 (Homo sapiens, UniProt P34897)
Chain of human SHMT2 (P34897 30-504 limits assumed): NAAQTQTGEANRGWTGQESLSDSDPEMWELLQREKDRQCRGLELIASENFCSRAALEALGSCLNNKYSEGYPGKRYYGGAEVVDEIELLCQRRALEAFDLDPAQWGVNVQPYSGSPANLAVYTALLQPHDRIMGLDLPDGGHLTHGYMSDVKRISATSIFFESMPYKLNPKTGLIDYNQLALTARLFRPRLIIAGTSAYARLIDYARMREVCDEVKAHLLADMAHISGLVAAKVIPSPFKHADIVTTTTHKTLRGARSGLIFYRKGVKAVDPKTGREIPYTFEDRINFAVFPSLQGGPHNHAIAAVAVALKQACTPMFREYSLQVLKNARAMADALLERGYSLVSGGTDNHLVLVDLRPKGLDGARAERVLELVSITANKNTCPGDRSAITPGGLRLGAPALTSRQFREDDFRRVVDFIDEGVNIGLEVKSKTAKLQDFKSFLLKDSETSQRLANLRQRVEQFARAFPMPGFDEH
Description: (§3) For the SHMT1 and SHMT2 in vitro enzymatic assays, the rate of 5,10-methylene tetrahydrofolate formation catalyzed by SHMT1/2 was indirectly evaluated by coupling with excess MTHFD2, which converts NAD+ to NADH allowing for reaction monitoring by absorption at 340 nm. […] Inhibition of initial reaction velocity was determined by adding various inhibitors at different concentrations and monitored as described. IC50 may be calculated based on this assay.

[10] = test system: HCT-116 ΔSHMT2 cells; experiment: Cell growth assay, HCT-116 SHMT2 deletion (knock-out) cells; type: cell-based, human; conditions: FIG. 3B; increased potency versus native cells
Description: Inhibitors of SHMT were evaluated in various cancer cell lines, in the presence and absence of mutations in mitochondrial folate pathway enzymes.
To analyze the effects of inhibition on each isoform independently, SHMT1 and SHMT2 HCT-116 deletion clones were used.

[11] = test system: Su-DHL-2 cells; experiment: Cellular growth assay, Su-DHL-2; type: cell-based
Description: as §2

[12] = target: human SHMT1 (Homo sapiens, UniProt P34896); conditions: read-out: SHMT1 IC50; Table 3
Chain of human SHMT1 (P34896 2-483 limits assumed): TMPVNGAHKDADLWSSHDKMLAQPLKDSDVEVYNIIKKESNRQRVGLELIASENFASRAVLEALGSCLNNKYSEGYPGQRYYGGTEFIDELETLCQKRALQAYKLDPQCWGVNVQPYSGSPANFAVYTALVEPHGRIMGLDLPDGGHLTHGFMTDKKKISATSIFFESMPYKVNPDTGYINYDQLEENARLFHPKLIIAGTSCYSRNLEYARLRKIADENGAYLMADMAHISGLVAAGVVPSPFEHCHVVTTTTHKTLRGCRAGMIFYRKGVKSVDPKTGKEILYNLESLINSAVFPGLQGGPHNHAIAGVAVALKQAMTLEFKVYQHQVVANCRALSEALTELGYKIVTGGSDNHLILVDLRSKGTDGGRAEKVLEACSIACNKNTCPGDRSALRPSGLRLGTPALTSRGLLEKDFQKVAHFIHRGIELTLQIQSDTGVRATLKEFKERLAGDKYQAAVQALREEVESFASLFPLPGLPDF
Description: as §3

[13] = replicate 1, read-out: CLint (replicate 1)
[14] = replicate 2, read-out: CLint (replicate 2)

- logP [2]: 3.46
- IC50 [3]: 6.9 µM
Structure (SMILES): Cc1n[nH]c2c1C(c1cc(C#CCCO)cc(C(F)(F)F)c1)(C(C)C)C(C#N)=C(N)O2 (stereo not shown) [Compound 2]
- % formate rescue [1]: 100.58%

Structure (SMILES): Cc1n[nH]c2c1C(c1cc(C#CCCC(=O)N[C@@H](CCC(=O)O)C(=O)O)cc(C(F)(F)F)c1)(C(C)C)C(C#N)=C(N)O2 (stereo partly shown) [Compound 69]
- % formate rescue [1]: 96.41%
- IC50 [3]: 100 µM

Structure (SMILES): Cc1n[nH]c2c1C(c1cc(C#CCCC(N)=O)cc(C(F)(F)F)c1)(C(C)C)C(C#N)=C(N)O2 (stereo not shown) [Compound 11]
- % formate rescue [1]: 96.98%
- microsomal CLint at 2 μM [4, 13]: 764 µL/min/mg
- microsomal CLint at 2 μM [4, 14]: 541 µL/min/mg
- IC50 [3]: 5.98 µM

Structure (SMILES): Cc1n[nH]c2c1C(c1cc(CO)cc(-c3ccccc3)c1)(C(C)C)C(C#N)=C(N)O2 (stereo not shown) [HK-X2]
- IC80 ([5]; FIG. 12C legend): 2.5 µM
- concentrations that impair cell growth [6]: < 100 nM
- IC70 [7]: 5 µM
- apoptotic fraction of cells ([8]; inhibitor alone, untreated 2%): 8%
- apoptotic fraction of cells ([8]; inhibitor in the presence of formate): 15%

Structure (SMILES): Cc1n[nH]c2c1C(c1cc(C#CCCC(=O)O)cc(C(F)(F)F)c1)(C(C)C)C(C#N)=C(N)O2 (stereo not shown) [Compound 4]
- IC50 ([9]; read-out: SCHMT2 IC50, Table 2): 0.00017 µM
- % formate rescue [1]: 93.35%
- IC50 [3]: 15.1 µM

- microsomal CLint at 2 μM [4, 13]: 597 µL/min/mg
- microsomal CLint at 2 μM [4, 14]: 776 µL/min/mg
- logP [2]: 3.91
Structure (SMILES): Cc1n[nH]c2c1C(c1cc(C#CCCCO)cc(C(F)(F)F)c1)(C(C)C)C(C#N)=C(N)O2 (stereo not shown) [Compound 1]

Structure (SMILES): Cc1n[nH]c2c1C(c1cc(C#CCCC(=O)NC(C)(C)C(=O)O)cc(C(F)(F)F)c1)(C(C)C)C(C#N)=C(N)O2 (stereo not shown) [Compound 72]
- % formate rescue [1]: 98.35%
- logP [2]: 3.38
- IC50 [3]: 200 µM

- IC50 ([9]; read-out: SHMT2 IC50, Table 3): > 5 µM
Structure (SMILES): Cc1n[nH]c2c1C(C)(c1cccc([N+](=O)[O-])c1)C(C#N)=C(N)O2 (stereo not shown) [GD-07]

Structure (SMILES): Cc1n[nH]c2c1C(c1cc(C#CCCCO)cc(C(F)(F)F)c1)(C(C)C)C(C#N)=C(N)O2 (stereo not shown) [Compound 61, 6-amino-4-(3-(5-hydroxypent-1-yn-1-yl)-5-(trifluoromethyl)phenyl)-4-isopropyl-3-methyl-1,4-dihydropyrano[2,3-c]pyrazole-5-carbonitrile]
- growth of SHMT2 knock-out HCT116 cells [10]: inhibited growth
- growth (proliferation) of HCT116 cells ([3]; native HCT116, FIG. 3A): inhibited growth

- logP [2]: 4.17
- IC50 [3]: 11.1 µM
Structure (SMILES): COC(=O)CCC#Cc1cc(C(F)(F)F)cc(C2(C(C)C)C(C#N)=C(N)Oc3[nH]nc(C)c32)c1 (stereo not shown) [Compound 73]
- % formate rescue [1]: 97.33%

- microsomal CLint at 2 μM [4, 13]: 87.8 µL/min/mg
- microsomal CLint at 2 μM [4, 14]: 71.5 µL/min/mg
Structure (SMILES): Cc1n[nH]c2c1C(c1cc(Br)cc(C(F)(F)F)c1)(C(F)(F)F)C(C#N)=C(N)O2 (stereo not shown)

Structure (SMILES): Cc1n[nH]c2c1[C@@](c1cc(C(F)(F)F)cc(C(F)(F)F)c1)(C(C)C)C(C#N)=C(N)O2 [HK-16 (PK-2)]
- growth as assessed by cell count ([11]; Su-DHL-2, 5 μM): inhibited
- rescue of growth inhibition by formate ([11]; Su-DHL-2, 5 μM + 1 mM formate): not rescued
- growth as assessed by cell count ([5]; 5 μM): inhibited
- rescue of growth inhibition by formate ([5]; 5 μM + 1 mM sodium formate): significantly rescued

Structure (SMILES): Cc1n[nH]c2c1C(c1cc(C#CCCCN)cc(C(F)(F)F)c1)(C(C)C)C(C#N)=C(N)O2 (stereo not shown) [Compound 8]
- % formate rescue [1]: 80.65%
- IC50 [3]: 2.04 µM

- IC50 ([9]; read-out: SHMT2 IC50, Table 3): > 5 µM
- IC50 [12]: > 5 µM
Structure (SMILES): COc1cccc(C2(C3CCC3)C(C#N)=C(N)Oc3[nH]nc(C)c32)c1 (stereo not shown) [HK-2]

Structure (SMILES): Cc1n[nH]c2c1C(c1cc(C#CCCC(=O)N[C@H](CCC(=O)O)C(=O)O)cc(C(F)(F)F)c1)(C(C)C)C(C#N)=C(N)O2 (stereo partly shown) [Compound 70]
- % formate rescue [1]: 94.89%
- logP [2]: 2.49
- IC50 [3]: 100 µM

Structure (SMILES): Cc1n[nH]c2c1C(c1cc(C#N)cc(C#CCCC(=O)O)c1)(C(C)C)C(C#N)=C(N)O2 (stereo not shown) [Compound 68]
- % formate rescue [1]: 106.02%
- IC50 [3]: 100 µM

- microsomal CLint at 2 μM [4, 13]: 285 µL/min/mg
- microsomal CLint at 2 μM [4, 14]: 203 µL/min/mg
- IC50 [3]: 4.96 µM
Structure (SMILES): Cc1n[nH]c2c1C(c1cc(C#N)cc(C#CCCCO)c1)(C(C)C)C(C#N)=C(N)O2 (stereo not shown) [Compound 71]
- % formate rescue [1]: 97.81%

- microsomal CLint at 2 μM [4, 13]: 68 µL/min/mg
- microsomal CLint at 2 μM [4, 14]: 68 µL/min/mg
Structure (SMILES): Cc1n[nH]c2c1C(c1cc(C#CCCCO)cc(CO)c1)(C(C)C)C(C#N)=C(N)O2 (stereo not shown) [Compound 74]

- IC50 [3]: 1.36 µM
Structure (SMILES): Cc1n[nH]c2c1C(c1cc(C#CCCCO)cc(C(F)(F)F)c1)(C(C)C)C(C#N)=C(N)O2 (stereo not drawn) [1 (enantiomeric ally active peak)]
- % formate rescue [1]: 94.96%

From patent US10077273B2, “SHMT inhibitors” (The Trustees of Princeton University, priority 2016, dated 2018)
